ChEMBL document CHEMBL1201862, “PubChem BioAssay data set” (2004)
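All cell lines were grown in 96-well plates and treated with compound for 48 hours. The concentration for 50% growth inhibition is given as GI50.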 Active and inactive are the calls of the source. No stated cut-off is given here; in the data, active = GI50 up to about 1.1 µM and inactive = higher.

What was measured:
Assay in all cases: NCI anticancer screen, dose series, 48 h
[1] = test system: HOP-62
[2] = test system: HCC 2998
[3] = test system: SNB-75
[4] = test system: K562
[5] = test system: SK-MEL-2
[6] = test system: OVCAR-8
[7] = test system: DU-145
[8] = test system: SN12C
[9] = test system: NCI/ADR-RES
[10] = test system: HCT-116
[11] = test system: PC-3
[12] = test system: CAKI-1
[13] = test system: SK-MEL-28
[14] = test system: RPMI-8226
[15] = test system: SR
[16] = test system: Malme-3M
[17] = test system: HCT-15
[18] = test system: NCI-H226
[19] = test system: TK-10
[20] = test system: LOX IMVI

SMILES | GI50 [1] | GI50 [2] | GI50 [3] | GI50 [4] | GI50 [5] | GI50 [6] | GI50 [7] | GI50 [8] | GI50 [9] | GI50 [10] | GI50 [11] | GI50 [12] | GI50 [13] | GI50 [14] | GI50 [15] | GI50 [16] | GI50 [17] [µM] | GI50 [18] | GI50 [19] | GI50 [20]
O=C1c2cccnc2S(=O)(=O)N1c1ccc(Oc2ccccc2)cc1 | > 100 µM (inactive) | > 100 µM (inactive) | > 100 µM (inactive) | > 100 µM (inactive) | > 100 µM (inactive) | > 100 µM (inactive) | > 100 µM (inactive) | > 100 µM (inactive) | > 100 µM (inactive) | > 100 µM (inactive) | 72.3 µM (inactive) | 51.8 µM (inactive) | > 100 µM (inactive) | > 100 µM (inactive) | 80 µM (inactive) | > 100 µM (inactive) | > 100 | > 100 µM (inactive) | – | –
C/C=C/[C@@H]1[C@H]2C(=O)[C@]3(Cl)[C@@H](/C=C/C)[C@@H]3C(=O)[C@@]12Cl | 33.7 µM (inactive) | > 100 µM (inactive) | 53.3 µM (inactive) | > 100 µM (inactive) | > 100 µM (inactive) | > 100 µM (inactive) | > 100 µM (inactive) | > 100 µM (inactive) | > 100 µM (inactive) | > 100 µM (inactive) | > 100 µM (inactive) | > 100 µM (inactive) | > 100 µM (inactive) | – | > 100 µM (inactive) | > 100 µM (inactive) | > 100 | > 100 µM (inactive) | > 100 µM (inactive) | > 100 µM (inactive)
Nc1nc(S)c2c(N)n[nH]c2c1C(=O)Nc1ccccc1 | – | > 100 µM (inactive) | > 100 µM (inactive) | > 100 µM (inactive) | > 100 µM (inactive) | > 100 µM (inactive) | > 100 µM (inactive) | > 100 µM (inactive) | > 100 µM (inactive) | > 100 µM (inactive) | > 100 µM (inactive) | > 100 µM (inactive) | > 100 µM (inactive) | > 100 µM (inactive) | 13.9 µM (inactive) | > 100 µM (inactive) | > 100 | > 100 µM (inactive) | > 100 µM (inactive) | > 100 µM (inactive)
CC1CC(C#N)=C2NCCN2C1=O (stereo unspecified) | > 100 µM (inactive) | > 100 µM (inactive) | > 100 µM (inactive) | > 100 µM (inactive) | > 100 µM (inactive) | > 100 µM (inactive) | > 100 µM (inactive) | > 100 µM (inactive) | > 100 µM (inactive) | – | > 100 µM (inactive) | 51.9 µM (inactive) | > 100 µM (inactive) | > 100 µM (inactive) | > 100 µM (inactive) | 94 µM (inactive) | > 100 | > 100 µM (inactive) | > 100 µM (inactive) | 30.8 µM (inactive)
NC(=O)c1cc(N(CCO)CCO)c([N+](=O)[O-])cc1[N+](=O)[O-] | > 100 µM (inactive) | > 100 µM (inactive) | – | > 100 µM (inactive) | > 100 µM (inactive) | – | > 100 µM (inactive) | > 100 µM (inactive) | > 100 µM (inactive) | > 100 µM (inactive) | > 100 µM (inactive) | > 100 µM (inactive) | > 100 µM (inactive) | > 100 µM (inactive) | > 100 µM (inactive) | > 100 µM (inactive) | > 100 | > 100 µM (inactive) | > 100 µM (inactive) | > 100 µM (inactive)
O=C(CN1CCCCC1)CC(O)(C(F)(F)F)C(F)(F)F | – | > 100 µM (inactive) | 20.5 µM (inactive) | > 100 µM (inactive) | > 100 µM (inactive) | > 100 µM (inactive) | > 100 µM (inactive) | – | > 100 µM (inactive) | > 100 µM (inactive) | > 100 µM (inactive) | > 100 µM (inactive) | > 100 µM (inactive) | > 100 µM (inactive) | > 100 µM (inactive) | > 100 µM (inactive) | > 100 | > 100 µM (inactive) | > 100 µM (inactive) | > 100 µM (inactive)
CC[C@@H]1CC[C@@H]2[C@H](CC[C@]3(C)[C@@H](O[N+](=O)[O-])CC[C@@H]23)[C@H]1C(C)=O | 46.3 µM (inactive) | 28 µM (inactive) | 27.6 µM (inactive) | 34.8 µM (inactive) | – | 37.2 µM (inactive) | 45.7 µM (inactive) | 43.3 µM (inactive) | 21.8 µM (inactive) | 23.7 µM (inactive) | 28.9 µM (inactive) | 50.7 µM (inactive) | 30.3 µM (inactive) | 9.02 µM (inactive) | 25.6 µM (inactive) | 25.4 µM (inactive) | 22.2 | 26.5 µM (inactive) | > 100 µM (inactive) | 20 µM (inactive)
COc1ccc(OC)c(CNc2ccc(C(=O)O)cc2)c1 | – | > 100 µM (inactive) | > 100 µM (inactive) | > 100 µM (inactive) | > 100 µM (inactive) | > 100 µM (inactive) | > 100 µM (inactive) | – | > 100 µM (inactive) | > 100 µM (inactive) | > 100 µM (inactive) | > 100 µM (inactive) | > 100 µM (inactive) | > 100 µM (inactive) | > 100 µM (inactive) | > 100 µM (inactive) | > 100 | > 100 µM (inactive) | > 100 µM (inactive) | > 100 µM (inactive)
Cc1ccc(NNc2cc(=O)[nH]c(=O)[nH]2)cc1Cl | 71.9 µM (inactive) | 15.7 µM (inactive) | > 100 µM (inactive) | 2.99 µM (inactive) | 16.5 µM (inactive) | – | 37 µM (inactive) | > 100 µM (inactive) | 95.3 µM (inactive) | 14.9 µM (inactive) | 22.3 µM (inactive) | 14.4 µM (inactive) | 17.2 µM (inactive) | 10.9 µM (inactive) | 12.1 µM (inactive) | 17.8 µM (inactive) | 10.6 | 56.9 µM (inactive) | 19.1 µM (inactive) | 5.71 µM (inactive)
O=c1[nH]c2nccnc2c2c([N+](=O)[O-])cccc12 | > 100 µM (inactive) | > 100 µM (inactive) | > 100 µM (inactive) | > 100 µM (inactive) | > 100 µM (inactive) | > 100 µM (inactive) | > 100 µM (inactive) | > 100 µM (inactive) | > 100 µM (inactive) | > 100 µM (inactive) | 78.9 µM (inactive) | – | > 100 µM (inactive) | > 100 µM (inactive) | > 100 µM (inactive) | > 100 µM (inactive) | > 100 | 95.5 µM (inactive) | 81.8 µM (inactive) | 81.8 µM (inactive)
Cc1csc2[n+]1C(=O)/C(=C\c1ccc([N+](=O)[O-])cc1)S2 | 28.5 µM (inactive) | 21.6 µM (inactive) | 20.3 µM (inactive) | 26.8 µM (inactive) | 25.6 µM (inactive) | 22.4 µM (inactive) | 39 µM (inactive) | 37.4 µM (inactive) | 25.4 µM (inactive) | 17.8 µM (inactive) | 25.4 µM (inactive) | 25.2 µM (inactive) | 36.9 µM (inactive) | 16.6 µM (inactive) | 32.5 µM (inactive) | – | – | 4.1 µM (inactive) | 25.2 µM (inactive) | 22.5 µM (inactive)
CN(C)c1ccc(/C=N\NC(=O)Nc2cccc3ccccc23)cc1 | 8.67 µM (inactive) | 9.51 µM (inactive) | 9.02 µM (inactive) | – | 2.9 µM (inactive) | 14.9 µM (inactive) | 6.71 µM (inactive) | 11.8 µM (inactive) | 7.41 µM (inactive) | 5.52 µM (inactive) | 6.62 µM (inactive) | 3.25 µM (inactive) | 19.1 µM (inactive) | 4.28 µM (inactive) | 1.6 µM (inactive) | 4.03 µM (inactive) | 1.53 | 0.208 µM (active) | 12.2 µM (inactive) | 4.15 µM (inactive)
CON(C)C(=O)C(C)NC(=O)OCc1ccccc1 (stereo unspecified) | > 100 µM (inactive) | > 100 µM (inactive) | > 100 µM (inactive) | > 100 µM (inactive) | – | > 100 µM (inactive) | > 100 µM (inactive) | > 100 µM (inactive) | > 100 µM (inactive) | > 100 µM (inactive) | > 100 µM (inactive) | – | > 100 µM (inactive) | > 100 µM (inactive) | > 100 µM (inactive) | > 100 µM (inactive) | > 100 | > 100 µM (inactive) | > 100 µM (inactive) | –
COC(=O)NC1(NC(=O)OC)NC(=O)c2cc(OC)c(OC)c(OC)c2N1 | 21.1 µM (inactive) | 9.14 µM (inactive) | 13.7 µM (inactive) | 12.3 µM (inactive) | 0.0132 µM (active) | 64.4 µM (inactive) | 32 µM (inactive) | 41.6 µM (inactive) | 15.1 µM (inactive) | 26.1 µM (inactive) | 12.4 µM (inactive) | 63.8 µM (inactive) | 84.3 µM (inactive) | – | 17.3 µM (inactive) | 1.33 µM (inactive) | 8.49 | 31.1 µM (inactive) | 38 µM (inactive) | –
COC(=O)c1cn(CCCCO)nn1 | > 100 µM (inactive) | > 100 µM (inactive) | > 100 µM (inactive) | – | > 100 µM (inactive) | > 100 µM (inactive) | > 100 µM (inactive) | > 100 µM (inactive) | > 100 µM (inactive) | > 100 µM (inactive) | > 100 µM (inactive) | > 100 µM (inactive) | > 100 µM (inactive) | – | > 100 µM (inactive) | > 100 µM (inactive) | > 100 | > 100 µM (inactive) | > 100 µM (inactive) | > 100 µM (inactive)
